Experimental findings from a melting point compilation (Tetko et al.; mined from patent text by program, amines drawn as free bases though some values may be those of a salt) are described below.

Turning to `CON=C(c1nnco1)c1ccccc1COc1cc(C)ccc1C`, the melting point – broadly, the temperature, or range, at which the solid turns liquid – lay in the range of 134 to 135 °C.
In turn, `Cn1c(=O)c2c(ncn2CC(O)CN2CCN(CCCS(=O)(=O)c3ccccc3)CC2)n(C)c1=O` (stereo not given) had a melting point of 168 °C.
Turning to `CCCc1c(C=O)ncn1S(=O)(=O)N(C)C`, the melting point fell in the range of 57 to 58 °C.
Compound `CCN(CC)C(C)CN1c2cc(Cl)ccc2S[C@H]2[C@@H](O)[C@H](O)[C@@H](CO)O[C@H]21` (stereo not given in full) gave a melting point of 185 to 188 °C.
In the case of `Cc1oc(-c2ccc3ccccc3c2)nc1COc1ccc(COc2ncccc2CC(=O)O)cc1` it was 155 to 156 °C; in that of `CC(c1oc2ccccc2c(=O)c1-c1cccc(F)c1)n1nc(-c2cc3ccccc3s2)c2c(N)ncnc21` (stereo not given), 242 to 245 °C.
Under `COC(=O)C1CCC2C3CCC4CC=CCC4(C)C3C(=O)CC12C` (stereo not given) stands 169 to 175 °C; under `O=c1c(Cn2cncn2)cc2cc(Br)ccc2n1-c1ccccc1`, 237 to 240 °C.
In the case of `CCOC(=O)c1sc2c(c1C)c(N)c(C(=O)c1ccccc1)n2C(C)=O` it was 188 °C; in that of `CC(=O)SCCC(=O)N1CCC=C1C(=O)OC(C)(C)C`, 59 to 62 °C; in that of `Cc1ccc(-c2nc(NC(=O)OCC[Si](C)(C)C)cs2)cc1`, 108 to 109 °C.
In the case of `O=C(O)Cc1cc(Br)ccc1OCCCc1ccccc1`, the melting point lay within 79.5 to 81 °C.
Under `Cc1ncc(CN2CCc3ccccc3C2)c(N)n1` stands 150 to 153 °C; under `O=C(O)CN1C(=O)c2cccc3c(C(=O)c4ccccc4)ccc(c23)C1=O`, 310 to 312 °C.
In the case of `C=CCNC1=NS(=O)(=O)N=C1NCCSCc1ccc(CN(C)C)o1` it was 83 to 86 °C; in that of `CC(=O)OC1CSC(Oc2ccc(C)nc2[N+](=O)[O-])C(OC(C)=O)C1OC(C)=O` (stereo not given), 154 °C; in that of `CN(C)c1ccnc2c(NC(=O)c3c(Cl)cccc3Cl)cccc12`, 215 to 216 °C.
Under `CCC(=C(c1ccc(O)cc1)c1ccc(O)cc1)c1ccc(/C=C/C(=O)O)cc1` stands 280 to 281 °C; under `O=C(O)c1ccc(COCc2csc3nc(C(=O)NCc4ccccc4)[nH]c(=O)c23)cc1`, 268 to 269 °C.
In the case of `O=c1nc(-c2ccccc2)c2cc([N+](=O)[O-])ccc2n1Cc1ccccn1`, the melting point lay within 175 to 176 °C.
In the case of `COC(=O)c1occc1CN1C(=O)c2ccccc2C1=O` it was 140 to 143 °C; in that of `CC(=O)OC1CSC(Oc2ccc3c(c2)nnn3C)C(OC(C)=O)C1OC(C)=O` (stereo not given), 80 °C.
Consider `CNc1nc(C)c(C(=O)c2ccc(N)c(N)c2)s1`, for which the melting point lay within 115 to 125 °C.
Under `CCN1CC(=O)N(c2cc(F)ccc2C)C1=S` stands 98 to 100 °C; under `O=[N+]([O-])c1ccc2c(c1)CCN(Cc1ccc3cc([N+](=O)[O-])ccc3n1)CC2`, 127 to 130 °C.
For the compound `CCCCCCCCCCCCCCC(CCCCCCCCCCCCCC)C(=O)O`, the melting point is 73.5 to 75 °C.
Compound `CN1CCCC2C(=NO)CCCC21` (stereo not given) showed a melting point of 169 to 171 °C.
`O=C1NCCN(CC(=O)N2CCOCC2)C1c1cccs1` (stereo not given) showed a melting point of 190 to 193 °C.
Compound `CCCCCCCNCCCCCO` yielded a melting point of 47 to 48 °C.
In the case of `CS(=O)(=O)c1ccc(-c2ccc(C3C(CCC(O)c4ccc(F)cc4)C(=O)N3c3ccc(F)cc3)cc2)cc1` (stereo not given) it was 111 °C.
Compound `CC(=O)Nc1nc(C)c(S(=O)(=O)n2c(CCCC(=O)O)cc3cc(Cl)ccc32)s1` displayed a melting point of 231 to 233 °C.
In the case of `O=c1cc(-c2ccsc2)c2ccc(CCl)cc2o1` it was 125 to 127 °C.
Compound `Cc1ccc2nc(NCCCO)ccc2c1NC(=O)CC12CC3CC(CC(C3)C1)C2` came in with a melting point of 168 to 174 °C.
In the case of `CCCOC(Cc1ccc(OCCc2nc(-c3ccccc3)oc2C)c2ccccc12)C(=O)O` (stereo not given) it was 103 to 105 °C; in that of `CC(C)(C)C12OOC1(c1ccc(C(=O)N3CCOCC3)c(O)c1)OCC2(C)C` (stereo not given), 114 to 116 °C.
Regarding `Nc1ncnc2c1c(-c1ccc(Oc3ccccc3)cc1)cn2CC(=O)NCCOCCO`, the melting point fell in the range of 145 to 147 °C.
Under `Cc1oc(-c2ccccc2)nc1COc1ccc(COc2cccnc2CC#N)cc1` stands 138 to 139 °C.
In the case of `Cc1cc(-c2n[nH]c(=O)c(O)c2O)ccc1O` it was 265 to 267 °C; in that of `C=CCc1cc2c(c(O)c1C)C(=O)c1c(OC)c3c(c(O)c1C2=O)-c1c(cc2cnn(-c4ccccc4)c(=O)c2c1O)CC3`, 163 °C; in that of `CCOC(=O)CCC(C#N)(c1cccc(F)c1)N1CCOCC1` (stereo not given), 88 to 90 °C.
In turn, `c1ccc2c(c1)nc(Nc1ccc3cn[nH]c3c1)c1nc(C3CCCC3)[nH]c12` yielded a melting point of 235 to 236 °C.
As to `COc1ccc(Cl)cc1-c1[nH]c2cccc3c2c1CCNC3=O`, the melting point is 160 to 162 °C.
As to `C=CCSc1nnc(Cl)c2ccccc12`, the melting point lay within 76 to 78 °C.
On to `O=C(Nc1ccccc1)Nc1onc2c1CCC2`, for which the melting point turned out to be 202 °C.
Under `CCCOc1cc(COc2c(CC)cccc2CC(=O)O)n(Cc2ccc3ccccc3n2)n1` stands 110 to 111 °C.
In the case of `CCOC(=O)c1cc(S(=O)(=O)N2c3ccccc3-c3ccccc3C2C)ccc1OCC` (stereo not given) it was 113 to 115 °C; in that of `CCCCn1c(=O)n(CCN2CCN(c3ccccc3OC)CC2)c(=O)c2sccc21`, 139 to 140 °C; in that of `COc1cc(F)ccc1OCC#Cc1ccc(Cl)nc1`, 86 to 87 °C.
Under `CCCc1c(-c2ccc(Cl)cc2)n[nH]c1-c1cccs1` stands 129 to 132 °C; under `CCc1nc2c(N)nc3ccccc3c2n1CCOCCNC(=O)N1CCOCC1`, 182 to 184 °C.
As for `COc1cc(CC(=O)Nc2ccc(C3CN(C(=O)c4ccccc4)CC3C(=O)O)cc2)ccc1NC(=O)Nc1ccccc1C` (stereo not given), the melting point was determined as 248 °C.
Under `CNC(=O)n1sc(OC(C)C)nc1=O` stands 95 °C.
As for `C[C@@H](Oc1cccc(F)c1N)[C@H](NC(=O)OC(C)(C)C)C(=O)O`, the melting point was in the range of 158 to 160 °C.
Compound `Cc1ccc(C(=O)Nc2cc(N3CCN(C)CC3)cc(C(F)(F)F)c2)cc1Nc1nccc(-c2cccnc2)n1` displayed a melting point of 192 to 194 °C.
Under `Cc1cccc(C)c1NS(=O)(=O)c1cc(S(=O)(=O)Nc2c(C)cccc2C)c2cc(O)ccc2c1` stands 162 to 164 °C; under `Cc1cccc(-c2[nH]c(CC(C)C)nc2-c2cccc(-c3ccc(C(=O)NC4CCOCC4)cc3)c2)n1`, 126 to 129 °C.
In the case of `COc1ccc(O)c(C(=O)Nc2cc(Cl)cc(Cl)c2)c1`, the melting point is 230 to 232 °C.
Under `CCC=C(c1ccccc1N1CCCCC1)C(C(N)=O)c1ccc(C(=O)OCC)cc1` (stereo not given) stands 115 to 117 °C; under `COc1cc(CC#N)ccc1OCCOc1ccc(F)cc1`, 126 to 128 °C.
Compound `NCCc1ccc(C=Cc2ccccc2)cc1` returned a melting point of 141 to 156 °C.
Under `O=Cc1cc(Br)c(C=O)cc1Br` stands 184 to 189 °C; under `CC(C)c1cccc(C(C)C)c1NC(=O)CN`, 88 to 95 °C.
Under `COc1ccc2c3c([nH]c2c1)CCC(N(C)C)C3` (stereo not given) stands 100 to 105 °C; under `CC(C)(C)C(=O)Oc1ccc2nc(S(N)(=O)=O)sc2c1`, 167 °C.
Under `O=CCCC[C@@H](C(=O)O)N1C(=O)c2ccccc2C1=O` stands 219 to 222 °C; under `O=CC(=C(Cl)c1ccc2c(c1)OCO2)c1ccc2c(c1)OCO2`, 167 to 168 °C.
On to `O=c1ccc2c(n1CCc1ccccc1)CCCC2NCCc1ccc(Cl)c(Cl)c1` (stereo not given), for which the melting point lay in the range of 120 to 122 °C.
Under `O=C1CCN(Cc2ccccc2OC(F)F)CC1C(c1ccc(F)cc1)c1ccc(F)cc1` (stereo not given) stands 83 to 84 °C; under `Cc1nsc(OCC(Cl)(Cl)Cl)c1N`, 58 to 60 °C; under `O=C(Cn1ccnc1)c1cccs1`, 87 to 89 °C.
Under `O=C(NNS(=O)(=O)c1ccccc1)c1cc2cccc(Cl)c2o1` stands 179 to 180 °C.
Under `NC(=NCC(F)(F)F)Nc1nc(CCCCNc2ncccn2)cs1` stands 173 to 175 °C; under `COc1cc2c(cc1Cl)CCNCC2c1ccc(Br)cc1` (stereo not given), 139 to 140 °C.
With `Cn1cc(C(=O)NCc2ccc(Cl)cc2)c(=O)c2cc(CN3CCCOCC3)ccc21`, the melting point fell in the range of 178 to 179 °C.
Take `COc1cc(C(=O)c2cn(C)c(-c3cn(C)c4ccccc34)n2)cc(OC)c1OC`: the melting point lay within 164 to 166 °C.
On to `Fc1cccnc1N1CCC2(CC1)COOC2`, for which the melting point is 45 to 47 °C.
As to `Oc1ccc2c(c1)Cc1cc(Br)ccc1-2`, the melting point lay in the range of 183 to 184 °C.
Compound `O=C1CC(=O)CC(c2ccccc2Cl)C1` had a melting point of 157 to 158 °C.
The compound `CC(=O)c1ccc(-c2ccc(O)c(Br)c2)cc1` came in with a melting point of 166 to 170 °C.
For `CC(=O)NCCC1CCc2ccc3nn(C)c(C)c3c21` (stereo not given), the melting point lay in the range of 146 to 149 °C.
In the case of `O=c1[nH]c(=O)n2c3c(cccc13)CCC2CO` (stereo not given) it was 205 to 207 °C.
In the case of `Fc1cccc(Cl)c1-c1c(Cl)cc(-n2cncn2)nc1Cl` it was 210 °C; in that of `COc1c(F)cccc1C(=O)Cl`, 71 to 73 °C; in that of `Oc1ccc2nc(Br)sc2c1`, 203 to 204 °C.
As for `CC(=O)Nc1ccc(Cl)cc1C(=O)c1ccccc1Cl`, the melting point was 108 to 110 °C.
Under `Nc1cc(CO)cc(S(N)(=O)=O)c1Oc1ccccc1` stands 170 °C; under `CC(C)(C)OC(=O)COCCC1CCN(c2cnc(-c3ccccc3)c(-c3ccccc3)n2)CC1`, 104 to 106 °C; under `CC(C)c1oc(-c2ccccc2)c(-c2ccc(F)c(Oc3ccccc3)c2)c1C=O`, 137 °C.
`O=C(O)c1cccc(-c2nc(-c3ccc(C(F)(F)F)cc3)co2)c1`: the melting point was in the range of 206 to 208 °C.
In the case of `Cc1cccc(-c2ccc3ccc(N)nc3n2)c1` it was 180 °C.
